Columns and labels:
Format in all cases: cell-based, murine and human
Details in all cases: GAL4-PPAR LBD chimera
PPAR-gamma = target: T1, PPAR-gamma (UniProt P37231); test: PPAR-gamma transactivation assay (GAL4 chimera, luciferase reporter) in CV-1 cells
T1 sequence (P37231 1-505): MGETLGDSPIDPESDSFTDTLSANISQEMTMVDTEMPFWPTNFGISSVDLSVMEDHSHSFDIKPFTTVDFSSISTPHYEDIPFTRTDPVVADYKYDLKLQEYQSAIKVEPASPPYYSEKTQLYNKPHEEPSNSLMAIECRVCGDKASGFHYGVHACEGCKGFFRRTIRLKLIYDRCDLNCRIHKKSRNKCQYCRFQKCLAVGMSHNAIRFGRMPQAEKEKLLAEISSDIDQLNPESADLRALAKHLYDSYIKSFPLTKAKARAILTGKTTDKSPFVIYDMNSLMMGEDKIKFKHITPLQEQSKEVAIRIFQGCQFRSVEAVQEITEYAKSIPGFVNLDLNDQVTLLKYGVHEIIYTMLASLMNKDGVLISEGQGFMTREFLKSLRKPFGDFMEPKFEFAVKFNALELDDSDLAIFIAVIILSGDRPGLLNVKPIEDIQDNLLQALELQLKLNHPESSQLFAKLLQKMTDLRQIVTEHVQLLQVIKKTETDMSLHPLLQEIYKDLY
Procedure, shortened: (§1)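 CV-1 cells transiently transfected with murine or human PPAR-alpha, -gamma or -delta ligand-binding domain fused to GAL4 DNA-binding domain plus a GAL4-site luciferase reporter. After replating in phenol-red-free DME with 5% delipidated calf serum, cells were exposed to compound 20-24 h; luciferase read-out gave EC50.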

PPAR-alpha = target: T2, PPAR-alpha (UniProt Q07869); test: PPAR-alpha transactivation assay (GAL4 chimera, luciferase reporter) in CV-1 cells
T2 sequence (Q07869 1-468): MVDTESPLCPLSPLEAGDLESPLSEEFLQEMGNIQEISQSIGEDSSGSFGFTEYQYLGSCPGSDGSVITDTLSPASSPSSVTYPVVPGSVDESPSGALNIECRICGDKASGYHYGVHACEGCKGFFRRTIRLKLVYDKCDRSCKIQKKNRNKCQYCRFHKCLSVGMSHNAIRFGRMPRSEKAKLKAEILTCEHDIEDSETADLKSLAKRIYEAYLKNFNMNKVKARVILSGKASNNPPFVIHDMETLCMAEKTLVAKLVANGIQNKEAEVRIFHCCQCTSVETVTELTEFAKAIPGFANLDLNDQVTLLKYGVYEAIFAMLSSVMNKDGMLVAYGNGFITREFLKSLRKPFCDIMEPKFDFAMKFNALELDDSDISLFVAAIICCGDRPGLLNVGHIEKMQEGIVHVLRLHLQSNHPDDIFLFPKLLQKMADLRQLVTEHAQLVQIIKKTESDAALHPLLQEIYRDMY
Procedure, shortened: as §1

PPAR-delta = target: T3, PPAR-delta (UniProt Q03181); test: PPAR-delta transactivation assay (GAL4 chimera, luciferase reporter) in CV-1 cells
T3 sequence (Q03181 1-441): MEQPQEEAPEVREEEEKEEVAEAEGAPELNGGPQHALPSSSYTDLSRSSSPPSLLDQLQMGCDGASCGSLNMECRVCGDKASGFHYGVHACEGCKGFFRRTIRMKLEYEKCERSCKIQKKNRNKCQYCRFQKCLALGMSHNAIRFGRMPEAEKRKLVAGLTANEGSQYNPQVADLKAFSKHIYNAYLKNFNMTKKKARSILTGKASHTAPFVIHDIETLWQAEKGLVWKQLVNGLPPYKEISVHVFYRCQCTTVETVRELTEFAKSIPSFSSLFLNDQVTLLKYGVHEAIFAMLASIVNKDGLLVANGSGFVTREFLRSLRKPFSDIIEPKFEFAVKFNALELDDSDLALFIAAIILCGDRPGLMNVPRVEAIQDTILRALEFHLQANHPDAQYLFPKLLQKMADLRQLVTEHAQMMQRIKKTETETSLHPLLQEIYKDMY
Procedure, shortened: as §1

COC(=O)[C@H]1CN(S(=O)(=O)c2ccc3c(c2)C(C(=O)O)CC3)CCN1c1ccc(C(F)(F)F)cn1 (stereo partly drawn) [Example 39, (R)-4-(3-Carboxy-indane-5-sulfonyl)-1-(5-trifluoromethyl-pyridin-2-yl)-piperazine-2-carboxylic acid methyl ester]
EC50 (PPAR-gamma): < 5 µM | EC50 (PPAR-alpha): < 5 µM | EC50 (PPAR-delta): < 5 µM

COC(=O)[C@@H]1CN(S(=O)(=O)c2ccc3c(c2)C(C(=O)O)CC3)CCN1c1ccc(C(F)(F)F)cn1 (stereo partly drawn) [Example 40, (S)-4-(3-carboxy-indane-5-sulfonyl)-1-(5-trifluoromethyl-pyridin-2-yl)-piperazine-2-carboxylic acid methyl ester]
EC50 (PPAR-gamma): < 5 µM | EC50 (PPAR-alpha): < 5 µM | EC50 (PPAR-delta): < 5 µM

O=C(O)Cc1csc2ccc(S(=O)(=O)N3CCN(c4ccc(C(F)(F)F)cc4)CC3)cc12 [Example 41, {5-[4-(4-trifluoromethyl-phenyl)-piperazine-1-sulfonyl]-benzo[b]thiophen-3-yl}-acetic acid]
EC50 (PPAR-gamma): 5 to 100 µM | EC50 (PPAR-alpha): 5 to 100 µM | EC50 (PPAR-delta): < 5 µM

CC1CN(c2ccc(C(F)(F)F)cn2)CCN1S(=O)(=O)c1ccc2scc(CC(=O)O)c2c1 (stereo not drawn) [Example 42, {5-[2-methyl-4-(5-trifluoromethyl-pyridin-2-yl)-piperazine-1-sulfonyl]-benzo[b]thiophen-3-yl}-acetic acid]
EC50 (PPAR-gamma): 5 to 100 µM | EC50 (PPAR-alpha): 5 to 100 µM | EC50 (PPAR-delta): < 5 µM

C[C@@H]1CN(c2ccc(C(F)(F)F)cn2)C[C@H](C)N1S(=O)(=O)c1ccc2scc(CC(=O)O)c2c1 [Example 43, {5-[2,6-dimethyl-4-(5-trifluoromethyl-pyridin-2-yl)-piperazine 1-sulfonyl]-benzo[b]thiophen-3-yl}-acetic acid]
EC50 (PPAR-gamma): 5 to 100 µM | EC50 (PPAR-alpha): > 100 µM | EC50 (PPAR-delta): < 5 µM

CC1CN(S(=O)(=O)c2ccc3scc(CC(=O)O)c3c2)C(C)CN1c1ccc(C(F)(F)F)cn1 (stereo not drawn) [Example 44, {5-[2,5-dimethyl-4-(5-trifluoromethyl-pyridin-2-yl)-piperazine-1-sulfonyl]-benzo[b]thiophen-3-yl}-acetic acid]
EC50 (PPAR-gamma): 5 to 100 µM | EC50 (PPAR-alpha): > 100 µM | EC50 (PPAR-delta): < 5 µM

O=C(O)C1CCc2ccc(S(=O)(=O)N3CCN(c4ccc(C(F)(F)F)cc4F)CC3)cc21 (stereo not drawn) [Example 45, 6-[4-(2-fluoro-4-trifluoromethyl-phenyl)-piperazine-1-sulfonyl]-indan-1-carboxylic acid]
EC50 (PPAR-gamma): < 5 µM | EC50 (PPAR-alpha): < 5 µM | EC50 (PPAR-delta): < 5 µM

O=C(O)C1CCc2ccc(S(=O)(=O)N3CCN(c4ccc(Cl)c(Cl)c4)CC3)cc21 (stereo not drawn) [Example 46, 6-[4-(3,4-dichloro-phenyl)-piperazine-1-sulfonyl]-indan-1-carboxylic acid]
EC50 (PPAR-gamma): < 5 µM | EC50 (PPAR-alpha): < 5 µM | EC50 (PPAR-delta): < 5 µM

O=C(O)Cc1csc2ccc(S(=O)(=O)N3CCN(c4ccc(C(F)(F)F)cc4F)CC3)cc12 [Example 47, {5-[4-(2-fluoro-4-trifluoromethyl-phenyl)-piperazine-1-sulfonyl]-benzo[b]thiophen-3-yl}-acetic acid]
EC50 (PPAR-gamma): < 5 µM | EC50 (PPAR-alpha): < 5 µM | EC50 (PPAR-delta): < 5 µM

O=C(O)Cc1csc2ccc(S(=O)(=O)N3CCN(c4ccc(C(F)(F)F)c(F)c4)CC3)cc12 [Example 48, {5-[4-(3-fluoro-4-trifluoromethyl-phenyl)-piperazine-1-sulfonyl]-benzo[b]thiophen-3-yl}-acetic acid]
EC50 (PPAR-gamma): < 5 µM | EC50 (PPAR-alpha): < 5 µM | EC50 (PPAR-delta): < 5 µM

C[C@@H]1CN(c2ccc(Cl)c(Cl)c2)C[C@H](C)N1S(=O)(=O)c1ccc2c(c1)C(C(=O)O)CC2 (stereo partly drawn) [Example 49, 6-[4-(3,4-dichloro-phenyl)-2,6-cis-dimethyl-piperazine-1-sulfonyl]-indan-1-carboxylic acid]
EC50 (PPAR-gamma): 5 to 100 µM | EC50 (PPAR-alpha): < 5 µM | EC50 (PPAR-delta): < 5 µM

C[C@@H]1CN(c2ccc(C(F)(F)F)c(Cl)c2)C[C@H](C)N1S(=O)(=O)c1ccc2c(c1)C(C(=O)O)CC2 (stereo partly drawn) [Example 50, 6-[4-(3-Chloro-4-trifluoromethyl-phenyl)-cis-2,6-dimethyl-piperazine-1-sulfonyl]-indan-1-carboxylic acid]
EC50 (PPAR-gamma): 5 to 100 µM | EC50 (PPAR-alpha): 5 to 100 µM | EC50 (PPAR-delta): < 5 µM

C[C@@H]1CN(c2ccc(OC(F)(F)F)cc2)C[C@H](C)N1S(=O)(=O)c1ccc2c(c1)C(C(=O)O)CC2 (stereo partly drawn) [Example 51, 6-[2,6-cis-dimethyl-4-(4-trifluoromethoxy-phenyl)-piperazine-1-sulfonyl]-indan-1-carboxylic acid]
EC50 (PPAR-gamma): 5 to 100 µM | EC50 (PPAR-alpha): < 5 µM | EC50 (PPAR-delta): < 5 µM

C[C@H]1CN(S(=O)(=O)c2ccc3c(c2)C(C(=O)O)CC3)CCN1c1ccc(Cl)c(Cl)c1 (stereo partly drawn) [Example 52, 6-[4-(3,4-dichloro-phenyl)-3-(S)-methyl-piperazine-1-sulfonyl]-indan-1-carboxylic acid]
EC50 (PPAR-gamma): < 5 µM | EC50 (PPAR-alpha): < 5 µM | EC50 (PPAR-delta): < 5 µM

C[C@H]1CN(S(=O)(=O)c2ccc3c(c2)C(C(=O)O)CC3)CCN1c1ccc(OC(F)(F)F)cc1 (stereo partly drawn) [Example 53, 6-[3-(S)-methyl-4-(4-trifluoromethoxy-phenyl)-piperazine-1-sulfonyl]-indan-1-carboxylic acid]
EC50 (PPAR-gamma): < 5 µM | EC50 (PPAR-alpha): < 5 µM | EC50 (PPAR-delta): < 5 µM

C[C@H]1CN(S(=O)(=O)c2ccc3c(c2)C(C(=O)O)CC3)CCN1c1ccc(C(F)(F)F)c(F)c1 (stereo partly drawn) [Example 54, 6-[4-(3-Fluoro-4-trifluoromethyl-phenyl)-3-(S)-Methyl-piperazine-1-sulfonyl]-indan-1-carboxylic acid]
EC50 (PPAR-gamma): < 5 µM | EC50 (PPAR-alpha): < 5 µM | EC50 (PPAR-delta): < 5 µM

C[C@H]1CN(S(=O)(=O)c2ccc3c(c2)C(C(=O)O)CC3)CCN1c1ccc(C(F)(F)F)cn1 (stereo partly drawn) [Example 55]
EC50 (PPAR-gamma): < 5 µM | EC50 (PPAR-alpha): < 5 µM | EC50 (PPAR-delta): < 5 µM

CCC1CN(c2ccc(C(F)(F)F)c(Cl)c2)CCN1S(=O)(=O)c1ccc2c(c1)C(C(=O)O)CC2 (stereo not drawn) [Example 56, 6-[4-(3-chloro-4-trifluoromethyl-phenyl)-2-ethyl-piperazine-1-sulfonyl]-indan-1carboxylic acid]
EC50 (PPAR-gamma): < 5 µM | EC50 (PPAR-alpha): < 5 µM | EC50 (PPAR-delta): < 5 µM

CCC1CN(c2ccc(OC(F)(F)F)cc2)CCN1S(=O)(=O)c1ccc2c(c1)C(C(=O)O)CC2 (stereo not drawn) [Example 57, 6-[2-ethyl-4-(4-trifluoromethoxy-phenyl)-piperazine-1-sulfonyl]-indan-1-carboxylic acid]
EC50 (PPAR-gamma): < 5 µM | EC50 (PPAR-alpha): < 5 µM | EC50 (PPAR-delta): < 5 µM

CCC1CN(c2ccc(Cl)c(Cl)c2)CCN1S(=O)(=O)c1ccc2c(c1)C(C(=O)O)CC2 (stereo not drawn) [Example 58, 6-[4-(3,4-Dichloro-phenyl)-2-ethyl-piperazine-1-sulfonyl]-indan-1-carboxylic acid]
EC50 (PPAR-gamma): 5 to 100 µM | EC50 (PPAR-alpha): < 5 µM | EC50 (PPAR-delta): < 5 µM

CCC1CN(c2ccc(C(F)(F)F)c(F)c2)CCN1S(=O)(=O)c1ccc2c(c1)C(C(=O)O)CC2 (stereo not drawn) [Example 59, 6-[2-Ethyl-4-(3-fluoro-4-trifluoromethyl-phenyl)-piperazine-1-sulfonyl]-indan-1-carboxylic acid]
EC50 (PPAR-gamma): 5 to 100 µM | EC50 (PPAR-alpha): < 5 µM | EC50 (PPAR-delta): < 5 µM

CCC1CN(c2ccc(C(F)(F)F)cc2F)CCN1S(=O)(=O)c1ccc2c(c1)C(C(=O)O)CC2 (stereo not drawn) [Example 60, 6-[2-Ethyl-4-(2-fluoro-4-trifluoromethyl-phenyl)-piperazine-1-sulfonyl]-indan-1-carboxylic acid]
EC50 (PPAR-gamma): 5 to 100 µM | EC50 (PPAR-alpha): < 5 µM | EC50 (PPAR-delta): < 5 µM

C[C@H]1CN(c2ccc(Cl)c(Cl)c2)CCN1S(=O)(=O)c1ccc2c(c1)C(C(=O)O)CC2 (stereo partly drawn) [Example 61, 6-[4-(3,4-Dichloro-phenyl)-(S)-methyl-piperazine-1-sulfonyl]-indan-1-carboxylic acid]
EC50 (PPAR-gamma): < 5 µM | EC50 (PPAR-alpha): < 5 µM | EC50 (PPAR-delta): < 5 µM
